From patent publication US20240101521A1, “DIAMINOTRIAZINE COMPOUNDS” (BASF SE, priority 2021, published 2024)

How the values were obtained:
Test in all cases: greenhouse pre-emergence herbicidal test
Format in all cases: in vivo
Details in all cases: scale 0 to 100
Abutilon theophrasti = system: Abutilon theophrasti
Text: (§1) The culture containers used were plastic flowerpots containing loamy sand with approximately 3.0% of humus as the substrate. The seeds of the test plants were sown separately for each species.
(§2) For the pre-emergence treatment, the active ingredients, which had been suspended or emulsified in water, were applied directly after sowing by means of finely distributing nozzles. The containers were irrigated gently to promote germination and growth and subsequently covered with transparent plastic hoods until the plants had rooted. This cover caused uniform germination of the test plants, unless this had been impaired by the active ingredients. For the post-emergence treatment, the test plants were first grown to a height of 3 to 15 cm, depending on the plant habit, and only then treated with the active ingredients which had been suspended or emulsified in water. For this purpose, the test plants were either sown directly and grown in the same containers, or they were first grown separately as seedlings and transplanted into the test containers a few days prior to treatment.
(§3) Depending on the species, the plants were kept at 10-25° C. or 20-35° C., respectively.
(§4) The test period extended over 2 to 4 weeks. During this time, the plants were tended, and their response to the individual treatments was evaluated.
(§5) Evaluation was carried out using a scale from 0 to 100. 100 means no emergence of the plants, or complete destruction of at least the aerial moieties, and 0 means no damage, or normal course of growth. A moderate herbicidal activity is given at values of at least 60, a good herbicidal activity is given at values of at least 70, and a very good herbicidal activity is given at values of at least 85.
(§6) The plants used in the greenhouse experiments were of the following species: […]

Amaranthus retroflexus = system: Amaranthus retroflexus
Text: as §1, §2, §3, §4, §5, §6

Setaria faberi = system: Setaria faberi
Text: as §1, §2, §3, §4, §5, §6

Echinochloa crus-galli = system: Echinochloa crus-galli
Text: as §1, §2, §3, §4, §5, §6

**Q.** With `COc1c(Br)cc(Br)c(F)c1Nc1nc(N)nc(C2(F)CCCCC2)n1` [Example 9] as the molecule, how does the herbicidal activity (Abutilon theophrasti; pre-emergence, 250 g/ha) read?
**A.** Its herbicidal activity is 90%.

**Q.** What about the herbicidal activity (Amaranthus retroflexus; pre-emergence, 250 g/ha) of the same molecule?
**A.** Its herbicidal activity is 100%.

**Q.** And the herbicidal activity (Setaria faberi; pre-emergence, 250 g/ha)?
**A.** The herbicidal activity was 95%.

**Q.** With `CC#CCOc1c(Br)cc(F)c(F)c1Nc1nc(N)nc(C2(F)CC2)n1` [Example 56] as the molecule, how does the herbicidal activity (Abutilon theophrasti; pre-emergence, 62,5 g/ha) read?
**A.** The herbicidal activity was 90%.

**Q.** And the herbicidal activity (Setaria faberi; pre-emergence, 62,5 g/ha)?
**A.** The herbicidal activity was 100%.

**Q.** What about the herbicidal activity (Echinochloa crus-galli; pre-emergence, 62,5 g/ha) of the same molecule?
**A.** Its herbicidal activity is 90%.

**Q.** How did the herbicidal activity (Abutilon theophrasti; pre-emergence, 125 g/ha) turn out when `COc1c(Br)cc(F)c(F)c1Nc1nc(N)nc(C(C)(C)F)n1` [Example 6, N4-(5-Bromo-2,3-difluoro-6-methoxy-phenyl)-6-(1-fluoro-1-methyl-ethyl)-1,3,5-triazine-2,4-diamine] was run?
**A.** Its herbicidal activity is 100%.

**Q.** And the herbicidal activity (Setaria faberi; pre-emergence, 125 g/ha)?
**A.** The herbicidal activity was 100%.

**Q.** And the herbicidal activity (Echinochloa crus-galli; pre-emergence, 125 g/ha)?
**A.** The herbicidal activity was 100%.

**Q.** Which herbicidal activity (Abutilon theophrasti; pre-emergence, 62,5 g/ha) does the source give for `C#CC(C)(F)c1nc(N)nc(Nc2c(F)c(F)cc(Cl)c2OC)n1` (stereo not drawn) [Example 118] here?
**A.** Its herbicidal activity is 100%.

**Q.** And the herbicidal activity (Amaranthus retroflexus; pre-emergence, 62,5 g/ha)?
**A.** The herbicidal activity was 100%.

**Q.** And the herbicidal activity (Setaria faberi; pre-emergence, 62,5 g/ha)?
**A.** Its herbicidal activity is 100%.

**Q.** Which herbicidal activity (Abutilon theophrasti; pre-emergence, 62 g/ha) does the source give for `CC#CCOc1c(Cl)cc(F)c(F)c1Nc1nc(N)nc(C(C)(F)CCl)n1` (stereo not drawn) [Example 84] here?
**A.** The herbicidal activity was 100%.

**Q.** What about the herbicidal activity (Setaria faberi; pre-emergence, 62 g/ha) of the same molecule?
**A.** Its herbicidal activity is 100%.

**Q.** And the herbicidal activity (Echinochloa crus-galli; pre-emergence, 62 g/ha)?
**A.** The herbicidal activity was 100%.

**Q.** `COc1c(Cl)cc(F)c(F)c1Nc1nc(N)nc(C(C)(C)F)n1` [Example 7, N4-(5-Chloro-2,3-difluoro-6-methoxy-phenyl)-6-(1-fluoro-1-methyl-ethyl)-1,3,5-triazine-2,4-diamine] was tested. Which herbicidal activity (Abutilon theophrasti; pre-emergence, 125 g/ha) did it give?
**A.** Its herbicidal activity is 100%.

**Q.** And the herbicidal activity (Setaria faberi; pre-emergence, 125 g/ha)?
**A.** The herbicidal activity was 100%.

**Q.** And the herbicidal activity (Echinochloa crus-galli; pre-emergence, 125 g/ha)?
**A.** Its herbicidal activity is 100%.

**Q.** For `CC(C)(F)c1nc(N)nc(Nc2c(F)c(F)cc(Br)c2OCC#CC2CC2)n1` [Example 29], which herbicidal activity (Abutilon theophrasti; pre-emergence, 31 g/ha) is on record?
**A.** Its herbicidal activity is 100%.

**Q.** What about the herbicidal activity (Amaranthus retroflexus; pre-emergence, 31 g/ha) of the same molecule?
**A.** The herbicidal activity was 100%.

**Q.** What about the herbicidal activity (Setaria faberi; pre-emergence, 31 g/ha) of the same molecule?
**A.** The herbicidal activity was 100%.

**Q.** For `COc1c(Cl)c(F)c(F)c(F)c1Nc1nc(N)nc(C(C)(C)C)n1` [Example 162], which herbicidal activity (Abutilon theophrasti; pre-emergence, 62,5 g/ha) is on record?
**A.** Its herbicidal activity is 95%.

**Q.** And the herbicidal activity (Setaria faberi; pre-emergence, 62,5 g/ha)?
**A.** Its herbicidal activity is 100%.

**Q.** And the herbicidal activity (Echinochloa crus-galli; pre-emergence, 62,5 g/ha)?
**A.** The herbicidal activity was 95%.

**Q.** How did the herbicidal activity (Abutilon theophrasti; pre-emergence, 62,5 g/ha) turn out when `Nc1nc(Nc2c(F)c(F)cc(F)c2OCF)nc(C2(F)CCCC2)n1` [Example 107] was run?
**A.** The herbicidal activity was 100%.

**Q.** And the herbicidal activity (Setaria faberi; pre-emergence, 62,5 g/ha)?
**A.** The herbicidal activity was 100%.

**Q.** What about the herbicidal activity (Echinochloa crus-galli; pre-emergence, 62,5 g/ha) of the same molecule?
**A.** Its herbicidal activity is 100%.

**Q.** Which herbicidal activity (Abutilon theophrasti; pre-emergence, 62 g/ha) does the source give for `CC#CCOc1c(Br)cc(Br)c(F)c1Nc1nc(N)nc(C(C)(C)F)n1` [Example 64] here?
**A.** Its herbicidal activity is 100%.

**Q.** And the herbicidal activity (Setaria faberi; pre-emergence, 62 g/ha)?
**A.** Its herbicidal activity is 100%.

**Q.** What about the herbicidal activity (Echinochloa crus-galli; pre-emergence, 62 g/ha) of the same molecule?
**A.** Its herbicidal activity is 100%.

**Q.** What does the source list for `CC(C)(F)c1nc(N)nc(Nc2c(F)c(F)cc(Br)c2OCF)n1` [Example 106]?
**A.** herbicidal activity (Abutilon theophrasti; pre-emergence, 62,5 g/ha): 100%; herbicidal activity (Setaria faberi; pre-emergence, 62,5 g/ha): 100%; herbicidal activity (Echinochloa crus-galli; pre-emergence, 62,5 g/ha): 100%

**Q.** What does the source list for `COc1c(Br)cc(F)c(F)c1Nc1nc(N)nc(C2(F)CCCC2)n1` [Example 81]?
**A.** herbicidal activity (Abutilon theophrasti; pre-emergence, 62 g/ha): 100%; herbicidal activity (Setaria faberi; pre-emergence, 62 g/ha): 100%; herbicidal activity (Echinochloa crus-galli; pre-emergence, 62 g/ha): 100%

**Q.** Which results are given for `COc1c(Br)cc(Br)c(F)c1Nc1nc(N)nc(C(C)(C)F)n1` [Example 8]?
**A.** herbicidal activity (Abutilon theophrasti; pre-emergence, 125 g/ha): 100%; herbicidal activity (Setaria faberi; pre-emergence, 125 g/ha): 100%; herbicidal activity (Echinochloa crus-galli; pre-emergence, 125 g/ha): 100%

**Q.** Which herbicidal activity (Abutilon theophrasti; pre-emergence, 62,5 g/ha) does the source give for `CC#CCOc1c(Cl)cc(F)c(F)c1Nc1nc(N)nc(C2(F)CCCC2)n1` [Example 58] here?
**A.** The herbicidal activity was 100%.

**Q.** And the herbicidal activity (Setaria faberi; pre-emergence, 62,5 g/ha)?
**A.** The herbicidal activity was 100%.

**Q.** And the herbicidal activity (Echinochloa crus-galli; pre-emergence, 62,5 g/ha)?
**A.** Its herbicidal activity is 100%.

**Q.** For `C#CCOc1c(Br)cc(Br)c(F)c1Nc1nc(N)nc(C(C)(C)F)n1` [Example 65], which herbicidal activity (Abutilon theophrasti; pre-emergence, 62 g/ha) is on record?
**A.** The herbicidal activity was 100%.

**Q.** What about the herbicidal activity (Setaria faberi; pre-emergence, 62 g/ha) of the same molecule?
**A.** Its herbicidal activity is 100%.

**Q.** What about the herbicidal activity (Echinochloa crus-galli; pre-emergence, 62 g/ha) of the same molecule?
**A.** The herbicidal activity was 100%.

**Q.** Which herbicidal activity (Abutilon theophrasti; pre-emergence, 62,5 g/ha) does the source give for `COc1c(Cl)cc(Cl)c(F)c1Nc1nc(N)nc(C(C)(C)F)n1` [Example 59] here?
**A.** The herbicidal activity was 100%.

**Q.** And the herbicidal activity (Setaria faberi; pre-emergence, 62,5 g/ha)?
**A.** Its herbicidal activity is 100%.

**Q.** And the herbicidal activity (Echinochloa crus-galli; pre-emergence, 62,5 g/ha)?
**A.** The herbicidal activity was 95%.

**Q.** How did the herbicidal activity (Abutilon theophrasti; pre-emergence, 62,5 g/ha) turn out when `C#CC(C)Oc1c(F)cc(F)c(F)c1Nc1nc(N)nc(C2(F)CCCC2)n1` (stereo not drawn) [Example 105] was run?
**A.** The herbicidal activity was 100%.

**Q.** What about the herbicidal activity (Setaria faberi; pre-emergence, 62,5 g/ha) of the same molecule?
**A.** Its herbicidal activity is 100%.

**Q.** And the herbicidal activity (Echinochloa crus-galli; pre-emergence, 62,5 g/ha)?
**A.** The herbicidal activity was 100%.

**Q.** What does the source list for `CC#CCOc1c(Br)cc(F)c(F)c1Nc1nc(N)nc(C(C)(C)OC)n1` [Example 85]?
**A.** herbicidal activity (Abutilon theophrasti; pre-emergence, 62 g/ha): 85%; herbicidal activity (Setaria faberi; pre-emergence, 62 g/ha): 98%; herbicidal activity (Echinochloa crus-galli; pre-emergence, 62 g/ha): 100%

**Q.** Which results are given for `CC#CCOc1c(Cl)cc(F)c(F)c1Nc1nc(N)nc(C2(F)CC2)n1` [Example 57]?
**A.** herbicidal activity (Abutilon theophrasti; pre-emergence, 31 g/ha): 98%; herbicidal activity (Setaria faberi; pre-emergence, 31 g/ha): 100%; herbicidal activity (Echinochloa crus-galli; pre-emergence, 31 g/ha): 100%

**Q.** What does the source list for `CC#CCOc1c(Br)cc(F)c(F)c1Nc1nc(N)nc(C(C)(F)F)n1` [Example 47]?
**A.** herbicidal activity (Amaranthus retroflexus; pre-emergence, 62,5 g/ha): 100%; herbicidal activity (Setaria faberi; pre-emergence, 62,5 g/ha): 100%; herbicidal activity (Echinochloa crus-galli; pre-emergence, 62,5 g/ha): 100%
